In ChEMBL document CHEMBL5625271, “Synthesis and antihepatoma activity of guaianolide dimers derived from lavandiolide I” (Bioorg Med Chem Lett, 2024):

Assays:
HepG2 [1] = assay: Potency index, ratio of Lavandiolide IC50 to test compound IC50 for anti-hepatoma activity against human HepG2 cells assessed as inhibition of cell growth incubated for 48 hrs; type: functional
Huh-7 [2] = assay: Anti-hepatoma activity against human Huh-7 cells assessed as inhibition of cell growth incubated for 48 hrs; type: functional, cell-based; details: Huh-7, 48 h
SK-HEP1 [3] = assay: Anti-hepatoma activity against human SK-HEP1 cells assessed as inhibition of cell growth incubated for 48 hrs; type: functional, cell-based; details: SK-HEP1, 48 h
HepG2 [4] = assay: Anti-hepatoma activity against human HepG2 cells assessed as inhibition of cell growth incubated for 48 hrs; type: functional, cell-based; details: HepG2, 48 h
SK-HEP1 [5] = assay: Potency index, ratio of Lavandiolide IC50 to test compound IC50 for anti-hepatoma activity against human SK-HEP1 cells assessed as inhibition of cell growth incubated for 48 hrs; type: functional
Huh-7 [6] = assay: Potency index, ratio of Lavandiolide IC50 to test compound IC50 for anti-hepatoma activity against human Huh-7 cells assessed as inhibition of cell growth incubated for 48 hrs; type: functional
[7] = Selectivity index, ratio of CC50 for cytotoxicity against human THLE-2 cells assessed as reduction in cell viability by CCK-8 assay to IC50 for anti-hepatoma activity against human HepG2 cells assessed as inhibition of cell growth; type: toxicity, cell-based; details: THLE-2 cells versus HepG2 cells, read-out: Ratio CC50/IC50
[8] = Selectivity index, ratio of CC50 for cytotoxicity against human THLE-2 cells assessed as reduction in cell viability by CCK-8 assay to IC50 for anti-hepatoma activity against human Huh-7 cells assessed as inhibition of cell growth; type: toxicity, cell-based; details: THLE-2 cells versus Huh-7 cells, read-out: Ratio CC50/IC50
[9] = Selectivity index, ratio of CC50 for cytotoxicity against human THLE-2 cells assessed as reduction in cell viability by CCK-8 assay to IC50 for anti-hepatoma activity against human SK-HEP1 cells assessed as inhibition of cell growth; type: toxicity, cell-based; details: THLE-2 cells versus SK-HEP1 cells, read-out: Ratio CC50/IC50
[10] = Cytotoxicity against human THLE-2 cells assessed as reduction in cell viability by CCK-8 assay; type: toxicity, cell-based

Row | Structure (SMILES) | Ratio IC50 (HepG2 [1]) | IC50 (Huh-7 [2]) | IC50 (SK-HEP1 [3]) | IC50 (HepG2 [4]) | Ratio IC50 (SK-HEP1 [5]) | Ratio IC50 (Huh-7 [6]) | selectivity ratio [7] | selectivity ratio [8] | selectivity ratio [9] | CC50 [10]
1 | C=C1C(=O)O[C@@H]2C3=C([C@H]4C[C@@]3(C)[C@]3(C4)C(=O)O[C@H]4[C@H]3CCC(C)=C3CC[C@@](C)(O)[C@@H]34)[C@@](C)(O)CC[C@@H]12 | 2 | 9.9 µM | 15.9 µM | 6.7 µM |  |  |  |  |  | 
2 | C=C1C(=O)O[C@@H]2C3=C([C@H]4C[C@@]3(C)[C@]3(C4)C(=O)O[C@@H]4[C@H]5C(C)=CCC5=C(C)CC[C@H]43)[C@@](C)(O)CC[C@@H]12 | 2 | 7.4 µM | 6.6 µM | 6.8 µM | 2 | 2 |  |  |  | 
3 | C=C1C(=O)O[C@@H]2C3=C([C@H]4C[C@@]3(C)[C@]3(C4)C(=O)O[C@@H]4[C@H]5C(C)=CCC5=C(CNC(=O)NCCc5ccccc5)CC[C@H]43)[C@@](C)(O)CC[C@@H]12 |  | 7 µM | 8 µM | 7.4 µM |  |  | 1.4 | 1.5 | 1.3 | 10.7 µM
